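Five compound concentrations were applied to cells in 96-well plates for 48 hours; endpoints were derived by simple linear interpolation of the resulting dose-response curve. Abbreviation: GI50, concentration required for 50% inhibition of growth.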 Activity calls are given as the source filed them. Cut-off read from the data, not from the text of the source: active = GI50 up to about 1.1 µM and inactive = higher.
Tests used:
Experiment in all cases: inhibition of tumour cell growth, NCI panel, 48 h
[1] = tested on: A549
[2] = tested on: ACHN
[3] = tested on: CAKI-1
[4] = tested on: COLO 205
[5] = tested on: DLD-1
[6] = tested on: DMS-114
[7] = tested on: DMS-273
[8] = tested on: EKVX
[9] = tested on: HCT-116
[10] = tested on: HCT-15
[11] = tested on: HOP-18
[12] = tested on: HOP-62
[13] = tested on: HOP-92
[14] = tested on: HT-29
[15] = tested on: IGROV-1
[16] = tested on: KM-20L2
[17] = tested on: LOX IMVI
[18] = tested on: M14
[19] = tested on: M19-MEL
[20] = tested on: MOLT-4
[21] = tested on: Malme-3M
[22] = tested on: NCI-H23
[23] = tested on: NCI-H460
[24] = tested on: OVCAR-3
[25] = tested on: OVCAR-4
[26] = tested on: OVCAR-8
[27] = tested on: RPMI-8226
[28] = tested on: RXF 393
[29] = tested on: RXF 631
[30] = tested on: SF-295
[31] = tested on: SK-MEL-28
[32] = tested on: SK-MEL-2
[33] = tested on: SK-MEL-5
[34] = tested on: SK-OV-3
[35] = tested on: SN12C
[36] = tested on: SNB-19
[37] = tested on: SNB-75
[38] = tested on: SNB-78
[39] = tested on: SW-620
[40] = tested on: TK-10
[41] = tested on: U-251
[42] = tested on: UACC-257
[43] = tested on: UACC-62
[44] = tested on: UO-31
[45] = tested on: XF498
[46] = tested on: 786-0
[47] = tested on: A498
[48] = tested on: CCRF-CEM
[49] = tested on: HCC 2998
[50] = tested on: HL-60
[51] = tested on: K562
[52] = tested on: KM12
[53] = tested on: NCI-H226
[54] = tested on: NCI-H522
[55] = tested on: OVCAR-5
[56] = tested on: SF-268
[57] = tested on: SF-539
[58] = tested on: SR

`COc1ccc(C2C(C(=O)O)=C(CO)Oc3cc4c(cc32)OCO4)cc1` (stereo not given) was tested, and the GI50 [1] was > 100 µM (inactive), the GI50 [2] was > 100 µM (inactive) and the GI50 [3] was > 100 µM (inactive). For the same molecule, the GI50 [4] was > 100 µM (inactive), the GI50 [5] was > 100 µM (inactive) and the GI50 [6] was > 100 µM (inactive). The GI50 [7] was > 100 µM (inactive), the GI50 [8] was > 100 µM (inactive) and the GI50 [9] was > 100 µM (inactive). The GI50 [10] was greater than 100 µM, the GI50 [11] was > 100 µM (inactive) and the GI50 [12] was 32.5 µM (inactive). For the same molecule, the GI50 [13] was > 100 µM (inactive), the GI50 [14] was > 100 µM (inactive) and the GI50 [15] was > 100 µM (inactive). The GI50 [16] was > 100 µM (inactive), the GI50 [17] was > 100 µM (inactive) and the GI50 [18] was > 100 µM (inactive). The GI50 [19] was > 100 µM (inactive), the GI50 [20] was > 10 µM (inactive) and the GI50 [21] was > 100 µM (inactive). For the same molecule, the GI50 [22] was > 100 µM (inactive), the GI50 [23] was > 100 µM (inactive) and the GI50 [24] was > 100 µM (inactive). For the same molecule, the GI50 [25] was > 100 µM (inactive), the GI50 [26] was > 100 µM (inactive) and the GI50 [27] was > 100 µM (inactive). The GI50 [28] was > 100 µM (inactive), the GI50 [29] was > 100 µM (inactive) and the GI50 [30] was > 100 µM (inactive). The GI50 [31] was > 100 µM (inactive), the GI50 [32] was > 100 µM (inactive) and the GI50 [33] was > 100 µM (inactive). The GI50 [34] was > 100 µM (inactive), the GI50 [35] was > 100 µM (inactive) and the GI50 [36] was > 100 µM (inactive). For the same molecule, the GI50 [37] was 27.4 µM (inactive), the GI50 [38] was > 100 µM (inactive) and the GI50 [39] was > 100 µM (inactive). The GI50 [40] was > 100 µM (inactive), the GI50 [41] was > 100 µM (inactive) and the GI50 [42] was > 100 µM (inactive). The GI50 [43] was > 100 µM (inactive), the GI50 [44] was > 100 µM (inactive) and the GI50 [45] was > 100 µM (inactive).
With `COC1CC(O)C(OC(=O)c2ccccc2)C(C)O1` (stereo not given) the GI50 [46] was > 100 µM (inactive), the GI50 [47] was > 100 µM (inactive) and the GI50 [1] was > 100 µM (inactive). For the same molecule, the GI50 [3] was > 100 µM (inactive), the GI50 [48] was > 100 µM (inactive) and the GI50 [4] was > 100 µM (inactive). The GI50 [5] was > 10 µM (inactive), the GI50 [7] was > 100 µM (inactive) and the GI50 [49] was > 100 µM (inactive). The GI50 [9] was > 100 µM (inactive), the GI50 [10] was greater than 100 µM and the GI50 [50] was > 100 µM (inactive). For the same molecule, the GI50 [11] was > 100 µM (inactive), the GI50 [12] was > 100 µM (inactive) and the GI50 [13] was > 100 µM (inactive). The GI50 [14] was > 100 µM (inactive), the GI50 [15] was > 100 µM (inactive) and the GI50 [51] was > 100 µM (inactive). The GI50 [16] was > 100 µM (inactive), the GI50 [52] was > 100 µM (inactive) and the GI50 [17] was > 100 µM (inactive). The GI50 [18] was > 100 µM (inactive), the GI50 [19] was > 100 µM (inactive) and the GI50 [20] was > 100 µM (inactive). For the same molecule, the GI50 [21] was > 100 µM (inactive), the GI50 [53] was > 100 µM (inactive) and the GI50 [22] was > 100 µM (inactive). For the same molecule, the GI50 [23] was > 100 µM (inactive), the GI50 [54] was > 100 µM (inactive) and the GI50 [24] was > 100 µM (inactive). The GI50 [25] was > 100 µM (inactive), the GI50 [55] was > 100 µM (inactive) and the GI50 [26] was > 100 µM (inactive). For the same molecule, the GI50 [27] was > 100 µM (inactive), the GI50 [29] was > 100 µM (inactive) and the GI50 [56] was > 100 µM (inactive). For the same molecule, the GI50 [30] was > 100 µM (inactive), the GI50 [57] was > 100 µM (inactive) and the GI50 [31] was > 100 µM (inactive). The GI50 [33] was > 100 µM (inactive), the GI50 [35] was > 100 µM (inactive) and the GI50 [36] was > 100 µM (inactive). The GI50 [38] was > 100 µM (inactive), the GI50 [58] was > 100 µM (inactive) and the GI50 [39] was > 100 µM (inactive). The GI50 [40] was > 100 µM (inactive), the GI50 [41] was > 100 µM (inactive) and the GI50 [42] was > 10 µM (inactive). The GI50 [43] was > 100 µM (inactive) and the GI50 [45] was > 100 µM (inactive).
